The test system of test [1] is interleukin-1. In words: inhibition of interleukin-1 induced T cell proliferation assay. Particulars: active = >30% at 10^-6 M. It is filed as cell-based. The source says: The inhibition of interleukin-1 induced T cell proliferation assay, Proc. Nat. […] Since people with arthritis make excess interleukin 1, compounds which inhibit the activity of interleukin 1 are useful in the treatment of arthritis. According to this procedure compounds which inhibit the activity of interleukin 1 greater that 30% at 10^-6 M are considered to be "active".

The test system of test [2] is angiogenesis. In words: fertile egg or chick embryo assay of Folkman (inhibition of angiogenesis / tumor growth). It counts as in vivo. Particulars: chick embryo; for inhibition of angiogenesis: 50 μg/10 μl with heparin, avascular zone 4 mm or greater. Here is the method: According to this procedure compounds which are considered to be "active" (i.e, antiangiogenic) give an avascular zone of 4 mm or greater in some embryos when tested at 50 μg/10 μl in the presence of 50 μg/10 μ of heparin.

The subject of test [3] is MDA formation in rat brain synaptosomes. The experiment in a line: Malonyldialdehyde (MDA) Formation Assay (lipid peroxidation). It counts as biochemical. The following applies: active = 50% inhibition or more at 200 μM or less. An excerpt:
The MDA assays of Buege and Aust, Methods in Enzymology, Fleisher and Packer Editors. Academic Press, 1978, New York, Vol LII, p 302-310 and Kohn and Liversedge, J. Pharmacol. Exp. Ther. 82. […] Since iipid peroxidation is involved in the pathophysiology of central nervous system trauma, compounds which inhibit MDA formation are useful in treating the conditions listed below.
While not necessary to determine MDA formation, the above assays have been modified as follows: rat brain synaptosomes are prepared as described in the Example about the conjugated diene assay, except that the final wash of the synaptosomes and final suspension are in physiological (normal) saline in which the pH has been adjusted to 7 0. The synaptosomes are incubated for 10 min at 37° in physiological (normal) saline pH 7.0 (total volume=100 ul) containing; 10 ul synaptosomal suspension. 10% DMSO plus or minus drug. 150 uM Fe^+++ and 50 uM Fe^++. The incubation is started by the rapid addition of iron to the otherwise complete reaction. The iron solutions are prepared fresh as ferric chloride and ferrous ammonium sulfate in argon-purged water. Following the 10 min incubation, the reaction is stopped by the addition of 500 ul ice-cold 12% trichloroacetic acid prepared in 0.5 N hydrochloric acid. Water (300 ul) is then added along with 100 ul of freshly prepared thiobarbituric acid (3.3% in 0.5N sodium hydroxide) and 10 ul of 5mM desferrioxamine. The sample is then heated in a boiling water bath for 20 minutes. The samples are cooled and centrifuged for 15 minutes at 1500 xg and the absorbance of the supernatant fraction is read at 532 nm. The % inhibition of MDA formation is calculated by dividing the absorbance of sample containing drug by the absorbance of samples incubated without drug. Reaction blanks are samples incubated in the absence of iron A compound that inhibits MDA formation by 50% or more at a concentration of 200μM or less is considered "active".

Test [4] concerns arachidonic acid. The experiment in a line: Arachidonic Acid Antagonism Assay (AAAA). It is filed as in vivo, mouse (Charles River male CF-1). The following applies: mice; for arachidonic acid antagonism (elevation of LD50 of arachidonic acid): IV, 15 min before sodium arachidonate, outside 95% confidence interval of control LD50. The procedure: While not necessary to determine arachidonic acid antagonism, the above assay has been modified as follows: Charles River male CF-1 mice weighing […] are treated IV with the test compound dissolved in 1.0% Tween-80 and 0.1% hydrochloric acid in distilled water. 0 2 ml total volume. Fifteen minutes later sodium arachidonate (90% pure) in physiological (normal) […] is injected into the tail vein. The LD50 is measured using the Spearman-Karber method with a log dose interval of 0.05 (N-6). Compounds which elevate the LD50 outside of the 95% confidence interval of the control LD50 are considered to be "active".

These results are taken from USRE35053E, “Amines useful in producing pharmaceutically active CNS compounds” (The Upjohn Company, priority 1992, dated 1995).

SMILES strings stand for the structures. Counter-ions that a name gives are not always drawn.

On to `C[C@]12CC[C@H]3[C@@H](CCC4=CC(=O)C=C[C@@]43C)[C@@H]1CC[C@@H]2C(=O)CN1CCN(c2cc(N3CCCC3)nc(N3CCCC3)n2)CC1.Cl.Cl` [Example 97, 21-[4-[2,6-di-(1-pyrrolidinyl)-4-pyrimidinyl]-1-piperazinyl]-pregna-1,4-diene-3,20-dione dihydrochloride], for which the “inhibition of interleukin 1” value in test [1] is given as “demonstrate inhibition of interleukin 1”. Besides, in test [2], the inhibition of angiogenesis result is “demonstrate inhibition of angiogenesis”.

Regarding `C[C@]12CC[C@H]3[C@@H](CCC4=CC(=O)CC[C@@]43C)[C@@H]1CC[C@@H]2CCN1CCN(c2cc(N3CCCC3)nc(N3CCCC3)n2)CC1.Cl` [Example 107, 21-[4-(2,6-Bis(1-pyrrolidinyl)-4-pyrimidinyl)-1-piperazinyl]pregna-4-ene-3-one hydrochloride], the “inhibition of MDA formation” value in test [3] is on record as “demonstrate such activity”. Same read-out and setting: under `COc1ccc2c(c1)CC[C@@H]1[C@@H]2CC[C@@]2(C)[C@H]1CC[C@]2(O)C(=O)CN1CCN(c2cc(N3CCCC3)nc(N3CCCC3)n2)CC1` [Example 125, 3,17α-Dihydroxy-21-[4-[2,6-bis(1-pyrrolidinyl)-4-pyrimidinyl]-1-piperazinyl]-19-norpregna-1,3,5(10)-trien-20-one 3-methyl ether (E)-2-butenedioate 1:1 salt] stands “demonstrate such activity”. For the molecule `C[C@H]1C[C@@H]2[C@H]([C@@H](O)C[C@@]3(C)[C@H]2CC[C@]3(O)C(=O)CN2CCN(c3ccccn3)CC2)[C@@]2(C)C=CC(=O)C=C12` [Example 21, 11β,17α-dihydroxy-6α-methyl-21-[4-(2-pyridinyl)-1-piperazinyl]pregna-1,4-diene-3,20-dione], the “arachidonic acid antagonism (elevation of LD50 of arachidonic acid)” value (shortened to “arachidonic acid antagonism”) in test [4] was “demonstrate arachidonic acid antagonism”. Moreover, the “inhibition of interleukin 1” value in test [1] is on record as “demonstrate inhibition of interleukin 1”. For the same molecule, the “% of Embryos with 4 mm or Greater A vascular Zone” value in test [2] (50 μg/10 μl in the presence of heparin) came out at 91%. For the same molecule, the inhibition of angiogenesis result in test [2] is listed as “demonstrate inhibition of angiogenesis”. In the case of `C[C@]12CCC(=O)C=C1CC[C@@H]1C2=CC[C@@]2(C)[C@H]1CC[C@]2(O)C(=O)CN1CCN(c2cccc(N3CCCC3)n2)CC1` [Example 62, 17α-hydroxy-21-[4-[6-(1-pyrrolidinyl)-2-pyridinyl]-1-piperazinyl]pregna-4,9(11)-diene-3,20-dione(E)-2-butenedioate (1:1) salt], the “% of Control LD50” value in test [4] (100 mg/kg, LD50 of sodium arachidonate) is given as 138%. Further, in test [4], the “arachidonic acid antagonism” value is “demonstrate arachidonic acid antagonism”. Moreover, the “inhibition of MDA formation” value in test [3] was “demonstrate such activity”.

In the case of `C[C@]12CC[C@@H]3c4ccc(O)cc4CC[C@H]3[C@@H]1CC[C@]2(O)C(=O)CN1CCN(c2cc(N3CCCC3)nc(N3CCCC3)n2)CC1` [Example 129, 3,17α-Dihydroxy-21-[4-[2,6-bis(1-pyrrolidinyl)-4-pyrimidinyl]-1-piperazinyl]-19-norpregna-1,3,5(10)-trien-20-one(E)-2-butenedioate 1:1 salt], the “inhibition of MDA formation” value in test [3] was “demonstrate such activity”. Same read-out and setting: under `C[C@H]1C[C@H]2[C@@H]3C[C@H](F)C4=CC(=O)CC[C@]4(C)C3=CC[C@]2(C)[C@@]1(O)C(=O)CN1CCN(c2cc(N3CCCC3)nc(N3CCCC3)n2)CC1.Cl.Cl` [Example 118, 6α-Fluoro-17α-hydroxy-16β-methyl-21-[4-[2,6-bis(1-pyrrolidinyl)-4-pyrimidinyl]-1-piperazinyl]-pregna-4,9(11)-diene-3,20-dione dihydrochloride] stands “demonstrate such activity”; under `C[C@@H]1C[C@H]2[C@@H]3CCC4=CC(=O)C=C[C@]4(C)[C@H]3CC[C@]2(C)[C@H]1C(=O)CN1CCN(c2cc(N3CCCC3)nc(N3CCCC3)n2)CC1.Cl.Cl` [Example 121, 16α-Methyl-21-[4-[2,6-bis(1-pyrrolidinyl)-4-pyrimidinyl]-1-piperazinyl]pregna-1,4-diene-3,20-dione dihydrochloride], “demonstrate such activity”. Regarding `CN1CCN(CC(=O)[C@@]2(O)CC[C@H]3[C@@H]4CCC5=CC(=O)CC[C@]5(C)C4=CC[C@@]32C)CC1` [Example 101, 17α-hydroxy-21-(4-methyl-1-piperazinyl)-pregna-4,9(11)-diene-3,20-dione], the “inhibition of interleukin 1” value in test [1] was “demonstrate inhibition of interleukin 1”. Regarding `C[C@]12CC(=O)[C@H]3[C@@H](CCC4=CC(=O)CC[C@@]43C)[C@@H]1CC[C@@H]2C(=O)CN1CCN(c2cc(N3CCCC3)nc(N3CCCC3)n2)CC1.Cl.Cl` [Example 94, 21-[4-[2,6-bis(1-pyrrolidinyl)-4-pyrimidinyl]-1-piperazinyl]-pregn-4-ene-3,11,20-trione dihydrochloride], the “inhibition of interleukin 1” value in test [1] was “demonstrate inhibition of interleukin 1”.

In the case of `C[C@@]12C(=CC(=O)C[C@@H]1C#N)CC[C@@H]1C2=CC[C@]2(C)[C@@H](CCN3CCN(c4cc(N5CCCC5)nc(N5CCCC5)n4)CC3)CC[C@@H]12.Cl.Cl.Cl.O` [Example 110, 21-[4-(2,6-Bis(1-pyrrolidinyl)-4-pyrimidinyl)-1-piperazinyl]-1α-cyanopregna-4,9(11)-diene-3-one-trihydrochloride, hydrate], the “inhibition of MDA formation” value in test [3] is given as “demonstrate such activity”. With `C[C@]12CCC(=O)C=C1CC[C@@H]1C2=CC[C@]2(C)[C@@H](CCN3CCN(c4cc(N5CCCC5)nc(N5CCCC5)n4)CC3)CC[C@@H]12.Cl` [Example 104, 21-[4-(2,6-Bis(1-pyrrolidinyl)-4-pyrimidinyl)-1-piperazinyl]pregna-4,9(11)-dien-3-one hydrochloride], the “inhibition of MDA formation” value in test [3] is “demonstrate such activity”. Moreover, the inhibition of angiogenesis entry in test [2] is reported as “demonstrate inhibition of angiogenesis”. Consider `COc1ccc(CCN(CC(=O)[C@@]2(O)CC[C@H]3[C@@H]4CCC5=CC(=O)CC[C@]5(C)C4=CC[C@@]32C)Cc2cc(OC)c(OC)c(OC)c2)cc1OC` [Example 37, 17α-hydroxy-21-[[2-(3,4-dimethoxyphenyl)ethyl]-[3,4,5-trimethoxyphenyl)methyl]amino]pregna-4,9(11)diene-3,20-dione hydrochloride], for which the “inhibition of interleukin 1” value in test [1] was “demonstrate inhibition of interleukin 1”. In addition, the inhibition of angiogenesis result in test [2] is reported as “demonstrate inhibition of angiogenesis”. Take `CN(CCN(C)c1ccccn1)CC(=O)[C@@]1(O)CC[C@H]2[C@@H]3CCC4=CC(=O)CC[C@]4(C)C3=CC[C@@]21C.Cl.Cl` [Example 24, 17α-hydroxy-21-[methyl[2-(methyl-2-pyridinylamino)ethyl]amino]pregna-4,9(11)-diene-3,20-dione dihydrochloride]: the “arachidonic acid antagonism” value in test [4] is given as “demonstrate arachidonic acid antagonism”. For the same molecule, in test [2], the inhibition of angiogenesis entry is listed as “demonstrate inhibition of angiogenesis”. Consider `CCN(CC)c1ccc(N(C)C)c(N2CCN(CC(=O)[C@@]3(O)CC[C@H]4[C@@H]5CCC6=CC(=O)CC[C@]6(C)C5=CC[C@@]43C)CC2)n1.Cl.Cl` [Example 96, 21-[4-[6-(diethylamino)-3-(dimethylamino)-2-pyridinyl]-1-piperazinyl]-17α-hydroxypregna-4,9(11)-diene-3,20-dione dihydrochloride], for which, in test [1], the “inhibition of interleukin 1” value is “demonstrate inhibition of interleukin 1”.
